Results as given in PubChem BioAssay AID256 (DTP/NCI, 2004).
Values joined by “and” are separate entries in the source; they are usually repeats but may differ in a detail not shown here. Equal values may be shown once. Toxic doses and inconclusive results are not listed.

System: CD2F1 mice, L1210 leukemia ip, survival T/C
Test: NCI In Vivo Anticancer Drug Screen. Data for tumor model L1210 Leukemia (intraperitoneal) in CD2F1 (CDF1) mice
Settings: higher = longer survival
Summary of the method: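 Vehicle-treated tumor-bearing mice served as controls (C) for compound-treated mice (T). Reported figure is T divided by C.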

[1] = endpoint: mean survival time, dose: 100.0 mg/kg/injection, schedule: Q04DX002 (ip), vehicle: saline with Tween-80
[2] = endpoint: mean survival time, dose: 200.0 mg/kg/injection, schedule: Q04DX002 (ip), vehicle: saline with Tween-80
[3] = endpoint: mean survival time, dose: 400.0 mg/kg/injection, schedule: Q04DX002 (ip), vehicle: saline with Tween-80
[4] = endpoint: mean survival time, dose: 100.0 mg/kg/injection, schedule: Q01DX001 (ip), vehicle: saline with Tween-80
[5] = endpoint: mean survival time, dose: 100.0 mg/kg/injection, schedule: Q01DX009 (ip), vehicle: saline with Tween-80
[6] = endpoint: mean survival time, dose: 100.0 mg/kg/injection, schedule: Q04DX003 (ip), vehicle: saline with Tween-80
[7] = endpoint: mean survival time, dose: 200.0 mg/kg/injection, schedule: Q01DX001 (ip), vehicle: saline with Tween-80
[8] = endpoint: mean survival time, dose: 200.0 mg/kg/injection, schedule: Q01DX009 (ip), vehicle: saline with Tween-80
[9] = endpoint: mean survival time, dose: 200.0 mg/kg/injection, schedule: Q04DX003 (ip), vehicle: saline with Tween-80
[10] = endpoint: mean survival time, dose: 400.0 mg/kg/injection, schedule: Q01DX009 (ip), vehicle: saline with Tween-80
[11] = endpoint: mean survival time, dose: 400.0 mg/kg/injection, schedule: Q04DX003 (ip), vehicle: saline with Tween-80

CC(C)=N/N=C(N)/C(N)=N/N=C(C)C
T/C [1]: 103 % of control | T/C [2]: 106 % of control | T/C [3]: 95 % of control

O=NN(CCCl)C(=O)NCCO
T/C (endpoint: mean survival time, dose: 2.5 mg/kg/injection, schedule: Q01DX001 (ip), vehicle: water): 120 % of control | T/C (endpoint: mean survival time, dose: 3.13 mg/kg/injection, schedule: Q01DX009 (ip), vehicle: water): 355 % of control | T/C (endpoint: mean survival time, dose: 5.0 mg/kg/injection, schedule: Q01DX001 (ip), vehicle: water): 158 % of control | T/C (endpoint: mean survival time, dose: 6.25 mg/kg/injection, schedule: Q01DX009 (ip), vehicle: water): 242 % of control | T/C (endpoint: mean survival time, dose: 10.0 mg/kg/injection, schedule: Q01DX001 (ip), vehicle: water): 166 % of control and 411 % of control | T/C (endpoint: mean survival time, dose: 12.5 mg/kg/injection, schedule: Q01DX009 (ip), vehicle: water): 187 % of control | T/C (endpoint: mean survival time, dose: 20.0 mg/kg/injection, schedule: Q01DX001 (ip), vehicle: water): 333 % of control and 491 % of control | T/C (endpoint: mean survival time, dose: 25.0 mg/kg/injection, schedule: Q01DX009 (ip), vehicle: water): 101 % of control | T/C (endpoint: median survival time, dose: 0.75 mg/kg/injection, schedule: Q01DX009 (ip), vehicle: water): 164 % of control | T/C (endpoint: median survival time, dose: 0.78 mg/kg/injection, schedule: Q01DX009 (ip), vehicle: water): 241 % of control | T/C (endpoint: median survival time, dose: 1.5 mg/kg/injection, schedule: Q01DX009 (ip), vehicle: water): 223 % of control | T/C (endpoint: median survival time, dose: 1.56 mg/kg/injection, schedule: Q01DX009 (ip), vehicle: water): 198 % of control | T/C (endpoint: median survival time, dose: 1.57 mg/kg/injection, schedule: Q01DX009 (ip), vehicle: water): 275 % of control | T/C (endpoint: median survival time, dose: 3.0 mg/kg/injection, schedule: Q01DX009 (ip), vehicle: water): 352 % of control | T/C (endpoint: median survival time, dose: 3.12 mg/kg/injection, schedule: Q01DX009 (ip), vehicle: water): 308 % of control | T/C (endpoint: median survival time, dose: 3.13 mg/kg/injection, schedule: Q01DX009 (ip), vehicle: water): 375 % of control | T/C (endpoint: median survival time, dose: 6.0 mg/kg/injection, schedule: Q01DX009 (ip), vehicle: water): 268 % of control | T/C (endpoint: median survival time, dose: 6.25 mg/kg/injection, schedule: Q01DX009 (ip), vehicle: water): 212 % of control and 262 % of control | T/C (endpoint: median survival time, dose: 12.0 mg/kg/injection, schedule: Q01DX009 (ip), vehicle: water): 103 % of control | T/C (endpoint: median survival time, dose: 12.5 mg/kg/injection, schedule: Q01DX009 (ip), vehicle: water): 114 % of control and 103 % of control | T/C (endpoint: median survival time, dose: 25.0 mg/kg/injection, schedule: Q01DX009 (ip), vehicle: water): 97 % of control

Cc1cn(C2OC(CO)C(O)C2O)c([Se])nc1=O (stereo unspecified)
T/C (endpoint: mean survival time, dose: 50.0 mg/kg/injection, schedule: Q01DX005 (ip), vehicle: water): 97 % of control | T/C (endpoint: mean survival time, dose: 100.0 mg/kg/injection, schedule: Q01DX005 (ip), vehicle: water): 90 % of control | T/C (endpoint: mean survival time, dose: 200.0 mg/kg/injection, schedule: Q01DX005 (ip), vehicle: water): 90 % of control

[B-][N+]1(C)CC[N+]([B-])(C)CC1 (stereo unspecified)
T/C (endpoint: mean survival time, dose: 5.0 mg/kg/injection, schedule: Q01DX009 (ip), vehicle: saline with Tween-80): 104 % of control | T/C (endpoint: mean survival time, dose: 5.0 mg/kg/injection, schedule: Q04DX003 (ip), vehicle: saline): 103 % of control | T/C (endpoint: mean survival time, dose: 10.0 mg/kg/injection, schedule: Q01DX009 (ip), vehicle: saline with Tween-80): 96 % of control | T/C (endpoint: mean survival time, dose: 10.0 mg/kg/injection, schedule: Q04DX003 (ip), vehicle: saline): 98 % of control | T/C (endpoint: mean survival time, dose: 20.0 mg/kg/injection, schedule: Q04DX003 (ip), vehicle: saline): 98 % of control

O=C(NC(=S)Nc1cc(Cl)ccc1O)c1cccc(Br)c1
T/C [4]: 86 % of control and 89 % of control | T/C [5]: 96 % of control and 101 % of control | T/C [1]: 89 % of control and 103 % of control | T/C [6]: 91 % of control | T/C [7]: 86 % of control | T/C [8]: 97 % of control and 98 % of control | T/C [2]: 89 % of control and 100 % of control | T/C [9]: 96 % of control | T/C (endpoint: mean survival time, dose: 400.0 mg/kg/injection, schedule: Q01DX001 (ip), vehicle: saline with Tween-80): 86 % of control | T/C [10]: 116 % of control and 101 % of control | T/C [3]: 94 % of control and 95 % of control | T/C [11]: 95 % of control

O=C(NC1CC1(c1ccccc1)c1ccccc1)NC1CC1(c1ccccc1)c1ccccc1 (stereo unspecified)
T/C (endpoint: mean survival time, dose: 9.35 mg/kg/injection, schedule: Q01DX001 (ip), vehicle: other): 93 % of control | T/C (endpoint: mean survival time, dose: 18.7 mg/kg/injection, schedule: Q01DX001 (ip), vehicle: other): 91 % of control | T/C (endpoint: mean survival time, dose: 37.5 mg/kg/injection, schedule: Q01DX001 (ip), vehicle: other): 94 % of control

COc1ccc(C2=NNc3n[nH]c(=S)n3N2)cc1OC
T/C [5]: 93 % of control | T/C [6]: 91 % of control | T/C [8]: 93 % of control | T/C [9]: 101 % of control | T/C [10]: 104 % of control | T/C [11]: 90 % of control

Cc1ccc(-c2oc3ccccc3c(=O)c2O)cc1
T/C (endpoint: mean survival time, dose: 50.0 mg/kg/injection, schedule: Q01DX001 (ip), vehicle: saline): 98 % of control | T/C (endpoint: mean survival time, dose: 100.0 mg/kg/injection, schedule: Q01DX001 (ip), vehicle: saline): 92 % of control | T/C (endpoint: mean survival time, dose: 200.0 mg/kg/injection, schedule: Q01DX001 (ip), vehicle: saline): 98 % of control | T/C (endpoint: mean survival time, dose: 400.0 mg/kg/injection, schedule: Q01DX001 (ip), vehicle: saline): 98 % of control

CC1CN(Cc2ccccc2)C1
T/C (endpoint: mean survival time, dose: 12.5 mg/kg/injection, schedule: Q01DX001 (ip), vehicle: acetone): 86 % of control | T/C (endpoint: mean survival time, dose: 25.0 mg/kg/injection, schedule: Q01DX001 (ip), vehicle: acetone): 96 % of control | T/C (endpoint: mean survival time, dose: 50.0 mg/kg/injection, schedule: Q01DX001 (ip), vehicle: acetone): 94 % of control

COCc1nccc2c1[nH]c1ccccc12
T/C [5]: 92 % of control | T/C [8]: 110 % of control | T/C [10]: 107 % of control

C=C1CC2CCC1C2 (stereo unspecified)
T/C [5]: 96 % of control | T/C [6]: 104 % of control | T/C [9]: 98 % of control | T/C [11]: 98 % of control

OC1C2CCN(CC2)C1CN1CC=C(c2ccccc2)CC1 (stereo unspecified)
T/C (endpoint: mean survival time, dose: 100.0 mg/kg/injection, schedule: Q04DX003 (ip), vehicle: saline): 100 % of control

CCCCCCCCCCCCCCCCCC(=O)CC
T/C (endpoint: mean survival time, dose: 100.0 mg/kg/injection, schedule: Q04DX002 (ip), vehicle: saline + alcohol): 93 % of control | T/C (endpoint: mean survival time, dose: 200.0 mg/kg/injection, schedule: Q04DX002 (ip), vehicle: saline + alcohol): 93 % of control | T/C (endpoint: mean survival time, dose: 400.0 mg/kg/injection, schedule: Q04DX002 (ip), vehicle: saline + alcohol): 93 % of control

Cc1ccc(S(=O)(=O)Nc2ccccc2SSc2ccccc2NS(=O)(=O)c2ccc(C)cc2)cc1
T/C (endpoint: mean survival time, dose: 100.0 mg/kg/injection, schedule: Q01DX001 (ip), vehicle: Klucel (hydroxypropylcellulose) (HPC)): 96 % of control | T/C (endpoint: mean survival time, dose: 200.0 mg/kg/injection, schedule: Q01DX001 (ip), vehicle: Klucel (hydroxypropylcellulose) (HPC)): 96 % of control | T/C (endpoint: mean survival time, dose: 400.0 mg/kg/injection, schedule: Q01DX001 (ip), vehicle: Klucel (hydroxypropylcellulose) (HPC)): 90 % of control

COc1ccc2c(Br)cccc2c1
T/C (endpoint: mean survival time, dose: 100.0 mg/kg/injection, schedule: Q04DX003 (ip), vehicle: acetone): 102 % of control | T/C (endpoint: mean survival time, dose: 200.0 mg/kg/injection, schedule: Q04DX003 (ip), vehicle: acetone): 94 % of control | T/C (endpoint: mean survival time, dose: 400.0 mg/kg/injection, schedule: Q04DX003 (ip), vehicle: acetone): 92 % of control

Cc1cc(C)nc(NC(=S)N/N=C/c2ccc(O)cn2)n1
T/C [1]: 87 % of control | T/C [2]: 91 % of control | T/C [3]: 91 % of control

O=c1nc(Sc2ccccc2)ccn1C1OC(CO)C(O)C1O (stereo unspecified)
T/C (endpoint: mean survival time, dose: 12.5 mg/kg/injection, schedule: Q01DX005 (ip), vehicle: distilled water + Tween-80): 106 % of control | T/C (endpoint: mean survival time, dose: 25.0 mg/kg/injection, schedule: Q01DX005 (ip), vehicle: distilled water + Tween-80): 103 % of control | T/C (endpoint: mean survival time, dose: 50.0 mg/kg/injection, schedule: Q01DX005 (ip), vehicle: distilled water + Tween-80): 106 % of control | T/C (endpoint: mean survival time, dose: 100.0 mg/kg/injection, schedule: Q01DX005 (ip), vehicle: distilled water + Tween-80): 110 % of control | T/C (endpoint: mean survival time, dose: 200.0 mg/kg/injection, schedule: Q01DX005 (ip), vehicle: distilled water + Tween-80): 118 % of control

CCOC(=O)N/N=C/c1cc(Cl)cc(Cl)c1O
T/C (endpoint: mean survival time, dose: 50.0 mg/kg/injection, schedule: Q01DX001 (ip), vehicle: saline with Tween-80): 111 % of control | T/C [4]: 98 % of control | T/C [7]: 90 % of control

O=c1[nH]c(=S)[nH]c(-c2ccc(Cl)cc2)c1CCO
T/C [6]: 94 % of control | T/C [9]: 92 % of control | T/C [11]: 90 % of control
